Drawing on the supplement of paper PMC6411743, this text covers pEC50 for 79 targets.

By pEC50 is commonly meant −log10 of the EC50, conventionally taken in molar units.

Compound in one assay: Nc1nc2c(ncn2[C@@H]2O[C@H](COP(=O)(O)OP(=O)(O)OP(=O)(O)O)[C@@H](O)[C@H]2O)c(=O)[nH]1 [guanosine triphosphate]
The assay can be described thus: pEC50 of GTP-induced change in protein thermal stability (2D-TPP). As for the experimental part: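 2D thermal proteome profiling in Jurkat crude lysate. Lysate was treated 10 min at room temperature with Na-GTP (0, 0.001, 0.01, 0.1, 0.5 mM), heated to 12 temperatures (42-63.9 °C) for 3 min, and soluble protein was quantified by TMT10 LC-MS/MS. pEC50 is the median over replicates of dose-response fits (FDR-controlled hits).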

Compound in the next assay: Nc1ncnc2c1ncn2[C@@H]1O[C@H](COP(=O)(O)OP(=O)(O)OP(=O)(O)O)[C@@H](O)[C@H]1O [adenosine triphosphate]
Put plainly: pEC50 of ATP-induced change in protein thermal stability (2D-TPP). The method, boiled down: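 In three independent experiments, Jurkat crude lysate received five concentrations including vehicle for 10 min at room temperature before a 3 min heating step at 12 temperatures (42–63.9 °C). NP40 and benzonase were then added for 60 min at 4 °C, and soluble protein after ultracentrifugation was read out by TMT LC-MS/MS as median-normalised fold changes against vehicle at each temperature. Dose-response fits per replicate over adjacent temperature pairs yielded pEC50, with hits called by permutation-based false discovery rate control.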
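Wherever pEC50 of ATP-induced change in protein thermal stability (2D-TPP) is given: lysate dosed with Na-ATP at 0 0.005 0.05 0.5 and 2 mM.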

UniProt Q13057, sequence (Q13057 whole entry): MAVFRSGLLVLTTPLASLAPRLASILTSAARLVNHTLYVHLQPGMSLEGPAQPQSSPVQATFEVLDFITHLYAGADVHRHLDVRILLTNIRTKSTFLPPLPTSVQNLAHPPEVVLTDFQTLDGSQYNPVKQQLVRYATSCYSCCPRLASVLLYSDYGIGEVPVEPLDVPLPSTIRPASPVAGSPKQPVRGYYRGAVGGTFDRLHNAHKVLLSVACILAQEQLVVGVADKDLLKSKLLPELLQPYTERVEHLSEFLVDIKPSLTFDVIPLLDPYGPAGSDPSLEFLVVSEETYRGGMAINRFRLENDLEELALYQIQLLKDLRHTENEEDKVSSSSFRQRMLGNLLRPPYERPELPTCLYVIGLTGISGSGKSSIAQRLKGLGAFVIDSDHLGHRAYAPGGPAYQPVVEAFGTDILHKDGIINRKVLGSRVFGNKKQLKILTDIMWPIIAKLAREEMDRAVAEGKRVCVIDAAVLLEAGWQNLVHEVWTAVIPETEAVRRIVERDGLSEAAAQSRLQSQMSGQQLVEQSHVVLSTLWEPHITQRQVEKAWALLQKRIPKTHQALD
UniProt Q92499, sequence (Q92499 whole entry): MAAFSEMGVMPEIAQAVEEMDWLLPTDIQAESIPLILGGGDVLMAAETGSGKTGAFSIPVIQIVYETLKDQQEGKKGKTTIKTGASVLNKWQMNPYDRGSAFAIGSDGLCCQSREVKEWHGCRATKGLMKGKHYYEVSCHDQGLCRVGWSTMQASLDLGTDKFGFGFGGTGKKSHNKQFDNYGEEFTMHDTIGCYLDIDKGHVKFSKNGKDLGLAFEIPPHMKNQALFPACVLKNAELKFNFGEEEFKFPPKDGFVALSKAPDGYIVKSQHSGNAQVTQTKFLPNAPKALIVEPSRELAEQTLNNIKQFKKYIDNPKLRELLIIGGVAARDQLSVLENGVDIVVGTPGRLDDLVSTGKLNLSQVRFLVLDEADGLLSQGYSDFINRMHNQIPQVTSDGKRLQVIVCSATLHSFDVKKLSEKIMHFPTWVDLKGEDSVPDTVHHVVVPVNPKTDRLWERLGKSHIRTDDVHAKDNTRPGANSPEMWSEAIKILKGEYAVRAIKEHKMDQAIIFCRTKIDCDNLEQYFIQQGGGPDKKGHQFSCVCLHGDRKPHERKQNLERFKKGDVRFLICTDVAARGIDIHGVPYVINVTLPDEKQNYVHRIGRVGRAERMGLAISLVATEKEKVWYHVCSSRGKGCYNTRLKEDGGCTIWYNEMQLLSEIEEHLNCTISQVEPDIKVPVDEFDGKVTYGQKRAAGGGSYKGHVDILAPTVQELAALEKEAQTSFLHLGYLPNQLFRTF
UniProt O75191, sequence (O75191 whole entry): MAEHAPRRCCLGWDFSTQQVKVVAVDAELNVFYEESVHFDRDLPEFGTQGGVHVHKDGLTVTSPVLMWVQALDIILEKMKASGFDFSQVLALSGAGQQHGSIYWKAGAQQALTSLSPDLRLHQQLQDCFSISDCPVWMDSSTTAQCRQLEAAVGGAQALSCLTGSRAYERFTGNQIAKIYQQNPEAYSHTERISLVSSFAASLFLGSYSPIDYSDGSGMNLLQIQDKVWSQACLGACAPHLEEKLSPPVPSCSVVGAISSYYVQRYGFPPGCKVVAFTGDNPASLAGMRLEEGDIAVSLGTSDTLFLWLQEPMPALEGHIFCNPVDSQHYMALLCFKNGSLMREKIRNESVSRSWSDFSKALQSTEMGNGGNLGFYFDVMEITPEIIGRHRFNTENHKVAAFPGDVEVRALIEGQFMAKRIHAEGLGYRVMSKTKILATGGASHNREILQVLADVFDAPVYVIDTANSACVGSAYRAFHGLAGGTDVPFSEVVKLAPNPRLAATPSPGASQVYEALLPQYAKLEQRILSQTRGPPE
UniProt Q9BT22, sequence (Q9BT22 whole entry): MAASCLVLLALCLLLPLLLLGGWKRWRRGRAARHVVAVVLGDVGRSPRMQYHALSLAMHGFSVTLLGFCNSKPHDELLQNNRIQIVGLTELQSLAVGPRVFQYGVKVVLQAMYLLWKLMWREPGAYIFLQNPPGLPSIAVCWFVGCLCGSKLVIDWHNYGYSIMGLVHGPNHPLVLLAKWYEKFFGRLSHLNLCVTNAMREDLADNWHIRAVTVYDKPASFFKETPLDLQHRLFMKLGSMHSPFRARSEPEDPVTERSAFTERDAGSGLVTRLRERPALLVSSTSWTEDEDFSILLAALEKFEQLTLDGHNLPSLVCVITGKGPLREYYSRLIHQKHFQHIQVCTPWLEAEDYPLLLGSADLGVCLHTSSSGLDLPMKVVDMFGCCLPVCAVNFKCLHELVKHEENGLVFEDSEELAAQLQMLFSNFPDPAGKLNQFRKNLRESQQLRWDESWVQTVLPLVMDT
UniProt O14772, sequence (O14772 whole entry): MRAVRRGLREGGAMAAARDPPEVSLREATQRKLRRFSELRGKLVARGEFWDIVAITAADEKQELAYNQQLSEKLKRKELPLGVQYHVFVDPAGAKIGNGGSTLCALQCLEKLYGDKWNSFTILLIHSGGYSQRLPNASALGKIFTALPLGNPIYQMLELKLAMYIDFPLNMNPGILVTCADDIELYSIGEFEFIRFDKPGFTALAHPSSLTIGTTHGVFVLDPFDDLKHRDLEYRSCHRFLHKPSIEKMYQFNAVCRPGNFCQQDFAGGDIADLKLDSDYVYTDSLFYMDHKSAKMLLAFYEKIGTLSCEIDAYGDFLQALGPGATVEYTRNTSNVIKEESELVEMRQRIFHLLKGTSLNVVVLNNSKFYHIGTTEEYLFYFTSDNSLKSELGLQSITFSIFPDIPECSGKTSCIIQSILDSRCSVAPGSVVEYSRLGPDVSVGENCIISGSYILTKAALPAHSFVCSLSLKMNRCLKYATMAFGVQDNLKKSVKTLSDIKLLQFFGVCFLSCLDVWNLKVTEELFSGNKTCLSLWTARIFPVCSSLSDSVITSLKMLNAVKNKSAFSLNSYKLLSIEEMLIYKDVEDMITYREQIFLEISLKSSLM
UniProt P09471, sequence (P09471 whole entry, looked up): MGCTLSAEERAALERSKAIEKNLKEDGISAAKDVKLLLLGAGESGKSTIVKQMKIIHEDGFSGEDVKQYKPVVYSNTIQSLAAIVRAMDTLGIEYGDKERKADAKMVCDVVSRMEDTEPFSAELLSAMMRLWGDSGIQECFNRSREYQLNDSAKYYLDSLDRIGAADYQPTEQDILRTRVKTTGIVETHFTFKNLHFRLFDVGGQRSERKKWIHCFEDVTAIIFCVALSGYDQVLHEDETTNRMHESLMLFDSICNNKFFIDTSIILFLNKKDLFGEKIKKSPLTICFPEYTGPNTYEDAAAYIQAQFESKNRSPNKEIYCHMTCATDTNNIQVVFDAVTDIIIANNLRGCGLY
UniProt Q92600, sequence (Q92600 whole entry): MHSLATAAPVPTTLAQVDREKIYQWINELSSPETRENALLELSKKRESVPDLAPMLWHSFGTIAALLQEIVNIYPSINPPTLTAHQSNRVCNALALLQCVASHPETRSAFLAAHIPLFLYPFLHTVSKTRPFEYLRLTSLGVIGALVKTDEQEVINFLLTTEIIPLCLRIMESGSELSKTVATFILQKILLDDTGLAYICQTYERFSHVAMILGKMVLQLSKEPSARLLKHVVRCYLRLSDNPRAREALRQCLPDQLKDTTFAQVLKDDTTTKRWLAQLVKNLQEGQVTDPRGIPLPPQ
UniProt Q4G176, sequence (Q4G176 whole entry): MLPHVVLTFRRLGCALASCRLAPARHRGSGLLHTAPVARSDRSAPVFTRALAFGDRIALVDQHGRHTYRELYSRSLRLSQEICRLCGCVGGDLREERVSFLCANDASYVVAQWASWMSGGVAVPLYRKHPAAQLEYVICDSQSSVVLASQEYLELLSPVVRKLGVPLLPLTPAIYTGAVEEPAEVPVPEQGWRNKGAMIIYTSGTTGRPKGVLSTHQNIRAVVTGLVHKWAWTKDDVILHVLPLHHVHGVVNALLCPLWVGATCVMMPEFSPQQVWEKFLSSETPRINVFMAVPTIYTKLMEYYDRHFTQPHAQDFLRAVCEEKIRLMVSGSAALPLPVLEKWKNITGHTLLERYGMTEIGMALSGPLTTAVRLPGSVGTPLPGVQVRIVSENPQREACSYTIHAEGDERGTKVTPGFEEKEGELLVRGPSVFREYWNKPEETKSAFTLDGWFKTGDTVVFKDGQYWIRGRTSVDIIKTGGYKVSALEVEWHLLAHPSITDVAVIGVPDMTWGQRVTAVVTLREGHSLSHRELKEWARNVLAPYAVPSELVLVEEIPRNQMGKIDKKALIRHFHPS
UniProt Q9Y673, sequence (Q9Y673 whole entry): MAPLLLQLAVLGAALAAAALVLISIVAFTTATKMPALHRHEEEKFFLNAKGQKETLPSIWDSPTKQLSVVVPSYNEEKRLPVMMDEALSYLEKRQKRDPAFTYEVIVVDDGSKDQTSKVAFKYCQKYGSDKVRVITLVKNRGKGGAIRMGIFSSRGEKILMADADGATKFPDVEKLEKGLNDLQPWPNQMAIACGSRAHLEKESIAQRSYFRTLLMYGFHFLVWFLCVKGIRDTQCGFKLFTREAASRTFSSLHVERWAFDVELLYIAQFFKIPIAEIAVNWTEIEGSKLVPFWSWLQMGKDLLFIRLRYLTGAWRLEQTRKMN
UniProt Q9NUV9, sequence (Q9NUV9 whole entry): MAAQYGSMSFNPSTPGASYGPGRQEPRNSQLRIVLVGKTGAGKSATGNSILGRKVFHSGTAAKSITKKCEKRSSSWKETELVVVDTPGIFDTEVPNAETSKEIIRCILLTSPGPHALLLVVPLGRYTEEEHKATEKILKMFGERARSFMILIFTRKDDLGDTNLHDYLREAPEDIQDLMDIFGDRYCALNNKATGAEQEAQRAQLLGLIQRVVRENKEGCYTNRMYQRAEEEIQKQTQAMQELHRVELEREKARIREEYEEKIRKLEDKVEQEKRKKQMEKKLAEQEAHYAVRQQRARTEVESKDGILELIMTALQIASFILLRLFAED
UniProt P18085, sequence (P18085 whole entry): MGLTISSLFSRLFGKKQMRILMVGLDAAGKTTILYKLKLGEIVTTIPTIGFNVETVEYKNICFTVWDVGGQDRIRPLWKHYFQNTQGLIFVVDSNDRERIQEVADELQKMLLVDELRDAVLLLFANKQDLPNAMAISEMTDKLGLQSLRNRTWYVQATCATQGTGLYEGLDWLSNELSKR

As for “ABCD3 (effect direction: stabilized) (UniProt P28288)”, the negative logarithm of the EC50 (pEC50) in the assay with guanosine triphosphate came out at 3.69.

For the target “ACSF3 (effect direction: destabilized) (UniProt Q4G176)”, in the assay with guanosine triphosphate, the pEC50 is 3.56.

Consider “ALG1 (effect direction: stabilized) (UniProt Q9BT22)”, for which, in the assay with guanosine triphosphate, the pEC50 came out at 3.56.

Regarding “ALG5 (effect direction: stabilized) (UniProt Q9Y673)”, in the assay with guanosine triphosphate, the pEC50 amounted to 4.68.

Consider “ARF3 (effect direction: stabilized) (UniProt P61204)”, for which, in the assay with guanosine triphosphate, the negative-log EC50 (pEC50) was determined as 4.12.

On to “ARF4 (effect direction: stabilized) (UniProt P18085)”, for which the negative-log EC50 (pEC50) with guanosine triphosphate is 4.57.

For “ARL1 (effect direction: stabilized) (UniProt P40616)”, in the assay with guanosine triphosphate, the pEC50 came out at 3.92.

“ARL3 (effect direction: stabilized) (UniProt P36405)”: the negative-log EC50 (pEC50) in the assay with guanosine triphosphate amounted to 4.36.

As to “ARL6 (effect direction: stabilized) (UniProt Q9H0F7)”, in the assay with guanosine triphosphate, the negative-log EC50 (pEC50) is 4.1.

Take “ATAD3A (effect direction: stabilized) (UniProt Q9NVI7)”: the pEC50 with guanosine triphosphate was 4.22.

Take “ATL2 (effect direction: stabilized) (UniProt Q8NHH9)”: the pEC50 in the assay with guanosine triphosphate came to 3.88.

Take “CDC123 (effect direction: stabilized) (UniProt O75794)”: the negative logarithm of the EC50 (pEC50) with guanosine triphosphate is less than 3.3.

On to “COASY (effect direction: stabilized) (UniProt Q13057)”, for which the pEC50 with guanosine triphosphate came to 4.03.

As for “CPSF6 (effect direction: stabilized) (UniProt Q16630)”, in the assay with guanosine triphosphate, the negative-log EC50 (pEC50) was less than 3.3.

As to “CPT1A (effect direction: stabilized) (UniProt P50416)”, the pEC50 with guanosine triphosphate is 4.62.

For “DDX1 (effect direction: stabilized) (UniProt Q92499)”, the pEC50 with guanosine triphosphate came out at 4.57.

In the case of “DHX30 (effect direction: destabilized) (UniProt Q7L2E3)”, the negative-log EC50 (pEC50) in the assay with guanosine triphosphate is 3.92.

For the target “DHX37 (effect direction: stabilized) (UniProt Q8IY37)”, the negative-log EC50 (pEC50) in the assay with guanosine triphosphate is 3.8.

As for “DNM1 (effect direction: stabilized) (UniProt Q05193)”, in the assay with guanosine triphosphate, the negative logarithm of the EC50 (pEC50) came out at 3.62.

With “DNM2 (effect direction: stabilized) (UniProt P50570)”, the pEC50 with guanosine triphosphate was determined as 3.78.

As for “DOCK2 (effect direction: stabilized) (UniProt Q92608)”, in the assay with guanosine triphosphate, the pEC50 was found to be 3.81.

Take “DRG1 (effect direction: stabilized) (UniProt Q9Y295)”: the negative logarithm of the EC50 (pEC50) with guanosine triphosphate was 4.7.

On to “EEFSEC (effect direction: stabilized) (UniProt P57772)”, for which, in the assay with guanosine triphosphate, the negative-log EC50 (pEC50) was determined as 3.92.

As for “EIF5B (effect direction: stabilized) (UniProt O60841)”, in the assay with guanosine triphosphate, the pEC50 came out at 3.81.

In the case of “ETNK1 (effect direction: stabilized) (UniProt Q9HBU6)”, the negative logarithm of the EC50 (pEC50) in the assay with guanosine triphosphate worked out at 4.21.

For the target “FPGT (effect direction: stabilized) (UniProt O14772)”, the pEC50 with guanosine triphosphate was 3.91.

For the target “GBP1 (effect direction: stabilized) (UniProt P32455)”, the pEC50 in the assay with guanosine triphosphate turned out to be 3.82.

Consider “GDI2 (effect direction: stabilized) (UniProt P50395)”, for which the negative-log EC50 (pEC50) with guanosine triphosphate was determined as 3.74.

For “GFM1 (effect direction: stabilized) (UniProt Q96RP9)”, the pEC50 in the assay with guanosine triphosphate was 4.04.

For the target “GIMAP4 (effect direction: stabilized) (UniProt Q9NUV9)”, the negative-log EC50 (pEC50) in the assay with guanosine triphosphate was 3.72.

Consider “GNAO1 (effect direction: stabilized) (UniProt P09471)”, for which the pEC50 with guanosine triphosphate was 4.24.

For the target “GNAQ (effect direction: stabilized) (UniProt P50148)”, the pEC50 with guanosine triphosphate was found to be 3.6.

Turning to “GNL2 (effect direction: stabilized) (UniProt Q13823)”, the pEC50 with guanosine triphosphate was found to be 4.2.

Take “UniProt Q02750 (effect direction: stabilized)”: in the assay with adenosine triphosphate, the pEC50 was 4.06.

For the target “UniProt Q05655 (effect direction: stabilized)”, the negative logarithm of the EC50 (pEC50) with adenosine triphosphate came to 3.91.

Take “UniProt Q08623 (effect direction: destabilized)”: the negative logarithm of the EC50 (pEC50) with adenosine triphosphate was less than 2.7.

Take “UniProt Q12905 (effect direction: stabilized)”: the pEC50 with adenosine triphosphate is 2.84.

For the target “UniProt Q13043 (effect direction: stabilized)”, the pEC50 in the assay with adenosine triphosphate stood at 3.38.

Turning to “UniProt Q13131 (effect direction: stabilized)”, the negative logarithm of the EC50 (pEC50) with adenosine triphosphate turned out to be 3.29.

Turning to “UniProt Q13188 (effect direction: stabilized)”, in the assay with adenosine triphosphate, the pEC50 was determined as 3.25.

As for “UniProt Q13416 (effect direction: stabilized)”, in the assay with adenosine triphosphate, the negative logarithm of the EC50 (pEC50) came to 3.4.

Take “UniProt Q13885 (effect direction: stabilized)”: in the assay with adenosine triphosphate, the pEC50 turned out to be 3.12.

With “UniProt Q14004 (effect direction: stabilized)”, in the assay with adenosine triphosphate, the pEC50 came to 3.59.

For “UniProt Q14240 (effect direction: stabilized)”, in the assay with adenosine triphosphate, the negative-log EC50 (pEC50) worked out at 3.54.

As to “UniProt Q14289 (effect direction: stabilized)”, the pEC50 with adenosine triphosphate turned out to be 3.03.

Take “UniProt Q14562 (effect direction: stabilized)”: the pEC50 with adenosine triphosphate came to 3.56.

Consider “UniProt Q15046 (effect direction: stabilized)”, for which the pEC50 with adenosine triphosphate is 3.22.

Turning to “UniProt Q15149 (effect direction: stabilized)”, the pEC50 with adenosine triphosphate is 2.72.

With “UniProt Q15208 (effect direction: stabilized)”, in the assay with adenosine triphosphate, the pEC50 is 3.24.

For the target “UniProt Q15257 (effect direction: stabilized)”, the negative logarithm of the EC50 (pEC50) with adenosine triphosphate is less than 2.7.

Take “UniProt Q15418 (effect direction: stabilized)”: the pEC50 in the assay with adenosine triphosphate was found to be 3.77.

Regarding “UniProt Q16181 (effect direction: stabilized)”, the pEC50 with adenosine triphosphate was less than 2.7.

Consider “UniProt Q92600 (effect direction: stabilized)”, for which the pEC50 with adenosine triphosphate stood at 3.18.

As to “UniProt Q92615 (effect direction: stabilized)”, in the assay with adenosine triphosphate, the pEC50 was determined as 3.16.

Take “UniProt Q92841 (effect direction: stabilized)”: the pEC50 with adenosine triphosphate was 3.79.

“UniProt Q92888 (effect direction: stabilized)”: the pEC50 in the assay with adenosine triphosphate is less than 2.7.

As for “UniProt Q92918 (effect direction: stabilized)”, the negative logarithm of the EC50 (pEC50) with adenosine triphosphate is 3.83.

With “VARS2 (effect direction: stabilized) (UniProt Q5ST30)”, the pEC50 with adenosine triphosphate stood at 3.22.

For “VPS35 (effect direction: stabilized) (UniProt Q96QK1)”, the negative logarithm of the EC50 (pEC50) with adenosine triphosphate is less than 2.7.

With “VTN (effect direction: destabilized) (UniProt P04004)”, the negative-log EC50 (pEC50) in the assay with adenosine triphosphate came to 3.24.

As for “WDR1 (effect direction: stabilized) (UniProt O75083)”, the pEC50 with adenosine triphosphate is less than 2.7.

As to “WDR33 (effect direction: stabilized) (UniProt Q9C0J8)”, in the assay with adenosine triphosphate, the pEC50 is less than 2.7.

Turning to “WDR61 (effect direction: stabilized) (UniProt Q9GZS3)”, the negative logarithm of the EC50 (pEC50) with adenosine triphosphate is 2.85.

For the target “WRN (effect direction: stabilized) (UniProt Q14191)”, the pEC50 in the assay with adenosine triphosphate amounted to 4.09.

As to “XPNPEP1 (effect direction: stabilized) (UniProt Q9NQW7)”, the pEC50 with adenosine triphosphate was 2.77.

Regarding “XPO1 (effect direction: stabilized) (UniProt O14980)”, the negative-log EC50 (pEC50) with adenosine triphosphate was less than 2.7.

On to “XRCC5 (effect direction: stabilized) (UniProt P13010)”, for which the negative logarithm of the EC50 (pEC50) in the assay with adenosine triphosphate was less than 2.7.

Consider “XRCC6 (effect direction: stabilized) (UniProt P12956)”, for which the negative logarithm of the EC50 (pEC50) with adenosine triphosphate is less than 2.7.

Regarding “XYLB (effect direction: stabilized) (UniProt O75191)”, the pEC50 with adenosine triphosphate amounted to 3.04.

Turning to “YARS2 (effect direction: stabilized) (UniProt Q9Y2Z4)”, in the assay with adenosine triphosphate, the pEC50 came out at 3.97.

In the case of “YARS (effect direction: stabilized) (UniProt P54577)”, in the assay with adenosine triphosphate, the negative logarithm of the EC50 (pEC50) turned out to be 3.25.

For the target “YME1L1 (effect direction: stabilized) (UniProt Q96TA2)”, in the assay with adenosine triphosphate, the pEC50 turned out to be 3.54.

Turning to “YRDC (effect direction: stabilized) (UniProt Q86U90)”, the negative logarithm of the EC50 (pEC50) with adenosine triphosphate amounted to 2.91.

For the target “ZC3HC1 (effect direction: stabilized) (UniProt Q86WB0)”, the negative-log EC50 (pEC50) with adenosine triphosphate was 2.91.

With “ZCCHC8 (effect direction: stabilized) (UniProt Q6NZY4)”, the negative logarithm of the EC50 (pEC50) in the assay with adenosine triphosphate is less than 2.7.

For “ZCCHC9 (effect direction: destabilized) (UniProt Q8N567)”, the pEC50 in the assay with adenosine triphosphate was less than 2.7.

As for “ZNF148 (effect direction: stabilized) (UniProt Q9UQR1)”, the pEC50 with adenosine triphosphate is 2.88.

For “ZNF740 (effect direction: stabilized) (UniProt Q8NDX6)”, the negative logarithm of the EC50 (pEC50) in the assay with adenosine triphosphate worked out at 3.16.

“ZRANB2 (effect direction: stabilized) (UniProt O95218)”: the pEC50 with adenosine triphosphate was 2.84.
